Measurements taken from publication PMC4734333, “Structural characterisation of human galectin-4 N-terminal carbohydrate recognition domain in complex with glycerol, lactose, 3′-sulfo-lactose, and 2′-fucosyllactose” (Scientific Reports, 2016).
Blank lines part the entries; values can stand above or below the compound they belong to.

Columns and labels:
Format in all cases: binding
[1] = target: T1, galectin-4N (human galectin-4 N-terminal CRD) (Homo sapiens, UniProt P56470); experiment: X-ray crystal structure ([…] Å) and competitive fluorescence anisotropy
T1 construct: gene LGALS4
T1 sequence (P56470 1-154): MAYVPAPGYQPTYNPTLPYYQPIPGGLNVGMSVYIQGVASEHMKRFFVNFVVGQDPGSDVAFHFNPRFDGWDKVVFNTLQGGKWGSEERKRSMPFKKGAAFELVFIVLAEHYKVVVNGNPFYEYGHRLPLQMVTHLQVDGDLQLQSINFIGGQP

[2] = target: T1, galectin-4N (human galectin-4 N-terminal CRD); experiment: as above; remark: listed apart in the source
[3] = target: T2, galectin-4N (human galectin-4 N-terminal CRD) (Homo sapiens, UniProt P56470); experiment: competitive fluorescence anisotropy
T2 construct: gene LGALS4; N-terminal CRD (galectin-4N)
T2 sequence (P56470 1-154 limits assumed): T1 sequence (P56470 1-154)

[4] = target: T1, galectin-4N (human galectin-4 N-terminal CRD); experiment: X-ray crystal structure ([…] Å) and competitive fluorescence anisotropy; remark: listed apart in the source

SMILES: C[C@@H]1O[C@@H](O[C@H]2[C@H](O[C@H]3[C@H](O)[C@@H](O)C(O)O[C@@H]3CO)O[C@H](CO)[C@H](O)[C@@H]2O)[C@@H](O)[C@H](O)[C@@H]1O (stereo partly shown) [2′FL, 2′-fucosyllactose]
Kd [1]: 380 µM

Kd [2]: 510 µM
SMILES: O=S(=O)(O)O[C@H]1[C@@H](O)[C@@H](CO)O[C@@H](O[C@H]2[C@H](O)[C@@H](O)C(O)O[C@@H]2CO)[C@@H]1O (stereo partly shown) [3′SuL, lactose-3′-sulfate]

Kd [3]: 164 µM
SMILES: CC(=O)N[C@H]1[C@@H](O[C@H]2[C@@H](O)[C@@H](CO)O[C@@H](O[C@H]3[C@H](O)[C@@H](O)C(O)O[C@@H]3CO)[C@@H]2O[C@@H]2O[C@@H](C)[C@@H](O)[C@@H](O)[C@@H]2O)O[C@H](CO)[C@H](O)[C@@H]1O (stereo partly shown) [A-tetrasaccharide]

SMILES: OC[C@H]1O[C@@H](O[C@H]2[C@H](O)[C@@H](O)C(O)O[C@@H]2CO)[C@H](O)[C@@H](O)[C@H]1O (stereo partly shown) [lactose]
Kd [4]: 1300 µM
